Laboratory results reported in patent publication US10543185B2, “Method for treating idiopathic pulmonary fibrosis” (The University of Chicago, priority 2015, dated 2020).

Tested on: patients with idiopathic pulmonary fibrosis (IPF)
Experiment: Independent replication cohort (INSPIRE trial and University of Chicago): NAC versus no NAC therapy, genotype-stratified
Type: in vivo, human
Details: for Replication cohort multivariate Cox interaction model coefficient, NAC Therapy term: FVC, DLCO, prednisone use, azathioprine use and study cohort; for Replication cohort multivariate Cox interaction model coefficient, SNP*NAC interaction term: adjusted as in the Table 9 footnote; for Genotype-stratified Composite Endpoint Risk Associated with NAC Therapy, HR: vs no NAC therapy
Text: The INSPIRE cohort consists of individuals enrolled in the industry-sponsored randomized clinical trial comparing interferon gamma-1b to placebo. […] Clinical and genetic data for patients providing informed consent to genetic testing were used to conduct the analysis. Patients were followed for up to 170 weeks after randomization.
The University of Chicago (UChicago) cohort consists of individuals followed in the UChicago ILD clinic from 2007-2013 who provided informed consent to undergo DNA testing. Patients were followed from time of initial evaluation until death, lung transplantation, loss-to-follow up or time of censoring (Sep. 9, 2013). Vital status was determined using telephone interviews with family members and the social security death index. Patients participating in PANTHER and INSPIRE were removed from the UC cohort.
To minimize the effects of population stratification, only participants that self-declared a non-Hispanic white ethnicity were included in the analysis. Demographic and clinical information extracted from the datasets included age, gender, race/ethnicity, treatment arm, pulmonary function testing (PFT) including forced vital capacity (FVC) and diffusion capacity for carbon monoxide (DLCO) and outcomes, including death, >10% decline in FVC, hospitalization and lung transplantation.
Hospitalization data were not available for patients in the replication cohort so composite endpoint-free survival was defined as time from trial enrollment (INSPIRE) or blood draw (UChicago) to death, ≥10% FVC decline or transplantation in those not receiving NAC therapy and time from NAC initiation to death, >10% FVC decline or transplantation in those receiving NAC therapy. Because follow-up time was longer for the UChicago compared to INSPIRE cohort, UChicago cohort survival time was censored at 170 weeks to allow for merging of the datasets. All statistical analysis was conducted using Stata (StataCorp. 2011. Release 12. College Station, Tex.).
Based on the findings above, interaction modeling was performed in an independent cohort between NAC therapy and rs3750920 (TOLLIP), rs5743894 (TOLLIP) and rs35705950 (MUC5B). Of the 771 non-Hispanic white individuals enrolled in the INSPIRE trial, DNA was available for 314. In the UChicago cohort, of 151 non-Hispanic white individuals with sequencing data, 91 had longitudinal PFT data and were included in the analysis. A summary of baseline demographic and clinical characteristics, along with genotype counts for the INSPIRE, UChicago and combined cohorts are shown in Table 8.

[1] = INSPIRE cohort, NAC recipients (n = 29)
[2] = UChicago cohort, NAC recipients (n = 18)
[3] = combined replication cohort, NAC recipients (n = 47)

CC(=O)N[C@@H](CS)C(=O)O [NAC, (2R)-2-acetamido-3-sulfanylpropanoic acid]
Composite Endpoint, % [1]: (48.3) %
Death, % [1]: (20.7) %
FVC Decline ≥10%, % [1]: (44.8) %
Transplant, % [1]: (6.9) %
Composite Endpoint, % [2]: (72.2) %
Death, % [2]: (72.2) %
FVC Decline ≥10%, % [2]: (22.2) %
Transplant, % [2]: (0) %
Composite Endpoint, % [3]: (57.5) %
FVC Decline ≥10%, % [3]: (36.2) %
Transplant, % [3]: (4.3) %
Replication cohort multivariate Cox interaction model coefficient, NAC Therapy term (model with rs3750920 (TOLLIP), adjusted for age, gender): 1.37
Replication cohort multivariate Cox interaction model coefficient, SNP*NAC interaction term (model with rs5743894 (TOLLIP), term printed as rs3750920*NAC interaction): −0.40
Replication cohort multivariate Cox interaction model coefficient, NAC Therapy term (model with rs5743894 (TOLLIP), adjusted for age, gender): 0.54
Replication cohort multivariate Cox interaction model coefficient, NAC Therapy term (model with rs35705950 (MUC5B), adjusted for age, gender): 1.24
Unadjusted Kaplan-Meier survival among NAC recipients, rs3750920 TT genotype versus CC or CT genotype (replication cohort, FIG. 3, p=0.03): significantly better overall survival
Genotype-stratified Composite Endpoint Risk Associated with NAC Therapy, HR (replication cohort, rs3750920 (TOLLIP) CC, adjusted for age, gender, FVC and DLCO): 3.51
Genotype-stratified Composite Endpoint Risk Associated with NAC Therapy, HR (replication cohort, rs3750920 (TOLLIP) CT): 2.27
Genotype-stratified Composite Endpoint Risk Associated with NAC Therapy, HR (replication cohort, rs3750920 (TOLLIP) TT): 0.23
Genotype-stratified Composite Endpoint Risk Associated with NAC Therapy, HR (replication cohort, rs35705950 (MUC5B) GG): 3.15
Genotype-stratified Composite Endpoint Risk Associated with NAC Therapy, HR (replication cohort, rs35705950 (MUC5B) GT/TT): 0.94
Replication cohort multivariate Cox interaction model coefficient, SNP*NAC interaction term (rs3750920 (TOLLIP) interaction): −0.86
Replication cohort multivariate Cox interaction model coefficient, SNP*NAC interaction term (rs35705950 (MUC5B) interaction): −1.30
